Patent publication US20200055839A1 (priority 2017, published 2020)

test system: NL-RLuc virus; assay: Inhibition of HIV replication (NL-RLuc virus, luciferase readout in MT-2 cells); type: cell-based; settings: Human immunodeficiency virus 1, MT2, 120 h, MT-2 cells infected with NL-RLuc virus, 5 days of incubation, 10% FBS, at least 2 experiments
Procedure, shortened: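 MT-2 cells infected with NL4-3-derived virus carrying Renilla luciferase in place of part of nef, grown 5 days with serial compound dilutions in RPMI 1640/10% FBS. Virus growth read as luciferase expression. EC50 from median effect equation, at least 2 experiments.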

Row | Structure (SMILES) | EC50
1 | Cc1nc(-n2ccnc2)c(-c2ccc(OCCc3ccc(F)cc3)cc2)c(N2CCC(C)(C)CC2)c1[C@H](OC(C)(C)C)C(=O)O [Example 45, (S)-2-(tert-Butoxy)-2-(4-(4,4-dimethylpiperidin-1-yl)-5-(4-(4-fluorophenethoxy)phenyl)-6-(1H-imidazol-1-yl)-2-methylpyridin-3-yl)acetic acid] | 4 nM
2 | Cc1nc(-c2ccn(C)n2)c(-c2ccc(OCCc3ccc(F)cc3)cc2)c(N2CCC(C)(C)CC2)c1[C@H](OC(C)(C)C)C(=O)O [Example 46, (S)-2-(tert-Butoxy)-2-(4-(4,4-dimethylpiperidin-1-yl)-5-(4-(4-fluorophenethoxy)phenyl)-2-methyl-6-(1-methyl-1H-pyrazol-3-yl)pyridin-3-yl)acetic acid] | 4 nM
3 | Cc1nc(-c2cnn(C3CC3)c2)c(-c2ccc(OCCc3ccc(F)cc3)cc2)c(N2CCC(C)(C)CC2)c1[C@H](OC(C)(C)C)C(=O)O [Example 47, (S)-2-(tert-Butoxy)-2-(6-(1-cyclopropyl-H-pyrazol-4-yl)-4-(4,4-dimethylpiperidin-1-yl)-5-(4-(4-fluorophenethoxy)phenyl)-2-methylpyridin-3-yl)acetic acid] | 4 nM
4 | Cc1nc(-c2ccn(C)c2)c(-c2ccc(OCCc3ccc(F)cc3)cc2)c(N2CCC(C)(C)CC2)c1[C@H](OC(C)(C)C)C(=O)O [Example 48, (S)-2-(tert-Butoxy)-2-(4-(4,4-dimethylpiperidin-1-yl)-5-(4-(4-fluorophenethoxy)phenyl)-2-methyl-6-(1-methyl-1H-pyrrol-3-yl)pyridin-3-yl)acetic acid] | 3 nM
5 | Cc1nc(-c2cnn(C)c2C)c(-c2ccc(OCCc3ccc(F)cc3)cc2)c(N2CCC(C)(C)CC2)c1[C@H](OC(C)(C)C)C(=O)O [Example 49, (S)-2-(tert-Butoxy)-2-(6-(1,5-dimethyl-1H-pyrazol-4-yl)-4-(4,4-dimethylpiperidin-1-yl)-5-(4-(4-fluorophenethoxy)phenyl)-2-methylpyridin-3-yl)acetic acid] | 0.7 nM
6 | Cc1nc(-c2ccnn2C)c(-c2ccc(OCCc3ccc(F)cc3)cc2)c(N2CCC(C)(C)CC2)c1[C@H](OC(C)(C)C)C(=O)O [Example 50, (S)-2-(tert-Butoxy)-2-(4-(4,4-dimethylpiperidin-1-yl)-5-(4-(4-fluorophenethoxy)phenyl)-2-methyl-6-(1-methyl-1H-pyrazol-5-yl)pyridin-3-yl)acetic acid] | 2 nM
7 | Cc1nc(-c2cn[nH]c2)c(-c2ccc(OCCc3ccc(F)cc3)cc2)c(N2CCC(C)(C)CC2)c1[C@H](OC(C)(C)C)C(=O)O [Example 51, (S)-2-(tert-Butoxy)-2-(4-(4,4-dimethylpiperidin-1-yl)-5-(4-(4-fluorophenethoxy)phenyl)-2-methyl-6-(1H-pyrazol-4-yl)pyridin-3-yl)acetic acid] | 5 nM
8 | Cc1nc(NCCCN2CCN(C)CC2)c(-c2ccc(OCCc3ccc(F)cc3)cc2)c(N2CCC(C)(C)CC2)c1[C@H](OC(C)(C)C)C(=O)O [Example 52, (S)-2-(tert-Butoxy)-2-(4-(4,4-dimethylpiperidin-1-yl)-5-(4-(4-fluorophenethoxy)phenyl)-2-methyl-6-((3-(4-methylpiperazin-1-yl)propyl)amino)pyridin-3-yl)acetic acid] | 1 nM
9 | Cc1cn(-c2nc(C)c([C@H](OC(C)(C)C)C(=O)O)c(N3CCC(C)(C)CC3)c2-c2ccc(OCCc3ccc(F)cc3)cc2)c(C)n1 [Example 53, (S)-2-(tert-Butoxy)-2-(6-(2,4-dimethyl-1H-imidazol-1-yl)-4-(4,4-dimethylpiperidin-1-yl)-5-(4-(4-fluorophenethoxy)phenyl)-2-methylpyridin-3-yl)acetic acid] | 3 nM
10 | Cc1nc(-n2ccnc2C)c(-c2ccc(OCCc3ccc(F)cc3)cc2)c(N2CCC(C)(C)CC2)c1[C@H](OC(C)(C)C)C(=O)O [Example 54, (S)-2-(tert-Butoxy)-2-(4-(4,4-dimethylpiperidin-1-yl)-5-(4-(4-fluorophenethoxy)phenyl)-2-methyl-6-(2-methyl-1H-imidazol-1-yl)pyridin-3-yl)acetic acid] | 2 nM
11 | Cc1nc(-c2cn(C)cn2)c(-c2ccc(OCCc3ccc(F)cc3)cc2)c(N2CCC(C)(C)CC2)c1[C@H](OC(C)(C)C)C(=O)O [Example 57, (S)-2-(tert-Butoxy)-2-(4-(4,4-dimethylpiperidin-1-yl)-5-(4-(4-fluorophenethoxy)phenyl)-2-methyl-6-(1-methyl-1H-imidazol-4-yl)pyridin-3-yl)acetic acid] | 13 nM
12 | Cc1nc(N)c(-c2cc(F)c(F)c(F)c2)c(N2CCC(C)(C)CC2)c1[C@H](OC(C)(C)C)C(=O)O [Example 58, (S)-2-(6-Amino-4-(4,4-dimethylpiperidin-1-yl)-2-methyl-5-(3,4,5-trifluorophenyl)pyridin-3-yl)-2-(tert-butoxy)acetic acid] | 18 nM
13 | Cc1cc(C)n(-c2nc(C)c([C@H](OC(C)(C)C)C(=O)O)c(N3CCC(C)(C)CC3)c2-c2ccc(OCCc3ccc(F)cc3)cc2)n1 [Example 59, (S)-2-(tert-Butoxy)-2-(6-(3,5-dimethyl-1H-pyrazol-1-yl)-4-(4,4-dimethylpiperidin-1-yl)-5-(4-(4-fluorophenethoxy)phenyl)-2-methylpyridin-3-yl)acetic acid] | 3 nM
14 | Cc1nc(N)c(-c2cc(F)c(OCCc3ccc(F)cc3)c(F)c2)c(N2CCC(C)(C)CC2)c1[C@H](OC(C)(C)C)C(=O)O [Example 60, (S)-2-(6-Amino-5-(3,5-difluoro-4-(4-fluorophenethoxy)phenyl)-4-(4,4-dimethylpiperidin-1-yl)-2-methylpyridin-3-yl)-2-(tert-butoxy)acetic acid] | 25 nM
15 | Cc1cc(-c2c(N)nc(C)c([C@H](OC(C)(C)C)C(=O)O)c2N2CCC(C)(C)CC2)cc(C)c1OCCc1ccc(F)cc1 [Example 61, (S)-2-(6-Amino-4-(4,4-dimethylpiperidin-1-yl)-5-(4-(4-fluorophenethoxy)-3,5-dimethylphenyl)-2-methylpyridin-3-yl)-2-(tert-butoxy)acetic acid] | 11 nM
16 | Cc1nc(-n2cccn2)c(-c2ccc(OCCc3ccc(F)cc3)cc2)c(N2CCC(C)(C)CC2)c1[C@H](OC(C)(C)C)C(=O)O [Example 62, (S)-2-(tert-Butoxy)-2-(4-(4,4-dimethylpiperidin-1-yl)-5-(4-(4-fluorophenethoxy)phenyl)-2-methyl-6-(1H-pyrazol-1-yl)pyridin-3-yl)acetic acid] | 3 nM
17 | Cc1nc(Nc2ccccn2)c(-c2ccc(OCCc3ccc(F)cc3)cc2)c(N2CCC(C)(C)CC2)c1[C@H](OC(C)(C)C)C(=O)O [Example 63, (S)-2-(tert-Butoxy)-2-(4-(4,4-dimethylpiperidin-1-yl)-5-(4-(4-fluorophenethoxy)phenyl)-2-methyl-6-(pyridin-2-ylamino)pyridin-3-yl)acetic acid] | 6 nM
18 | Cc1nc(Nc2cccnc2)c(-c2ccc(OCCc3ccc(F)cc3)cc2)c(N2CCC(C)(C)CC2)c1[C@H](OC(C)(C)C)C(=O)O [Example 64, (S)-2-(tert-Butoxy)-2-(4-(4,4-dimethylpiperidin-1-yl)-5-(4-(4-fluorophenethoxy)phenyl)-2-methyl-6-(pyridin-3-ylamino)pyridin-3-yl)acetic acid] | 5 nM
19 | Cc1cccnc1Nc1nc(C)c([C@H](OC(C)(C)C)C(=O)O)c(N2CCC(C)(C)CC2)c1-c1ccc(OCCc2ccc(F)cc2)cc1 [Example 65, (S)-2-(tert-Butoxy)-2-(4-(4,4-dimethylpiperidin-1-yl)-5-(4-(4-fluorophenethoxy)phenyl)-2-methyl-6-((3-methylpyridin-2-yl)amino)pyridin-3-yl)acetic acid] | 2 nM
20 | Cc1nc(Nc2cncnc2)c(-c2ccc(OCCc3ccc(F)cc3)cc2)c(N2CCC(C)(C)CC2)c1[C@H](OC(C)(C)C)C(=O)O [Example 66, (S)-2-(tert-Butoxy)-2-(4-(4,4-dimethylpiperidin-1-yl)-5-(4-(4-fluorophenethoxy)phenyl)-2-methyl-6-(pyrimidin-5-ylamino)pyridin-3-yl)acetic acid] | 2 nM
21 | Cc1nc(Nc2ccccc2)c(-c2ccc(OCCc3ccc(F)cc3)cc2)c(N2CCC(C)(C)CC2)c1[C@H](OC(C)(C)C)C(=O)O [Example 67, (S)-2-(tert-Butoxy)-2-(4-(4,4-dimethylpiperidin-1-yl)-5-(4-(4-fluorophenethoxy)phenyl)-2-methyl-6-(phenylamino)pyridin-3-yl)acetic acid] | 27 nM
22 | Cc1nc(N)c(-c2cc(F)c(OCCc3ccc(F)cc3)cc2F)c(N2CCC(C)(C)CC2)c1[C@H](OC(C)(C)C)C(=O)O [Example 68, (2S)-2-(6-Amino-5-(2,5-difluoro-4-(4-fluorophenethoxy)phenyl)-4-(4,4-dimethylpiperidin-1-yl)-2-methylpyridin-3-yl)-2-(tert-butoxy)acetic acid] | 2 nM
23 | Cc1nc(N)c(-c2ccc(OCCc3ccc(F)cc3)cc2F)c(N2CCC(C)(C)CC2)c1[C@H](OC(C)(C)C)C(=O)O [Example 72, (2S)-2-(6-Amino-4-(4,4-dimethylpiperidin-1-yl)-5-(2-fluoro-4-(4-fluorophenethoxy)phenyl)-2-methylpyridin-3-yl)-2-(tert-butoxy)acetic acid] | 2 nM
24 | Cc1nc(N)c(-c2ccc(OCCc3ccc(F)cc3)c(F)c2)c(N2CCC(C)(C)CC2)c1[C@H](OC(C)(C)C)C(=O)O [Example 73, (S)-2-(6-Amino-4-(4,4-dimethylpiperidin-1-yl)-5-(3-fluoro-4-(4-fluorophenethoxy)phenyl)-2-methylpyridin-3-yl)-2-(tert-butoxy)acetic acid] | 1 nM

same assay, conditions: MT-2 cells infected with NL-RLuc virus, 5 days of incubation, 10% FBS, at least 2 experiments

Row | Structure (SMILES) | EC50
25 | Cc1nc(Nc2ncccn2)c(-c2ccc(OCCc3ccc(F)cc3)c(F)c2)c(N2CCC(C)(C)CC2)c1[C@H](OC(C)(C)C)C(=O)O [Example 69, (S)-2-(tert-Butoxy)-2-(4-(4,4-dimethylpiperidin-1-yl)-5-(3-fluoro-4-(4-fluorophenethoxy)phenyl)-2-methyl-6-(pyrimidin-2-ylamino)pyridin-3-yl)acetic acid] | 3 nM
